Laboratory results: US10889812B2, “Short non-coding protein regulatory RNAs (sprRNAs) and methods of use” (University of Maryland, Baltimore, priority 2014, dated 2021)

Columns and labels:
HBE4 cells = assay: Quantitative cell migration assay; type: cell-based, human; conditions: HBE4, vs Scr control
Description: (§1) For cell migration, we used two complementary assays. […] To compensate potential differences in the cell numbers among different treatment conditions, we seeded 10% less cells for Ant-163 treated HBE4 cells and 10% more cells for piR-L-163 transfected H1792 cells.
(§2) Two complimentary methods were used. For quantitative fluorescent dye assay, Innocyto™ Cell migration Assay kit (EMD Millipore) was used. Briefly, 24 hrs after treatment, 1×10^5 cells (10% less for Ant-163 treated cells or 10% more for piR-L-163 treated cells) were loaded to the upper chamber with growth factor-free Keratinocyte-SFM for (HBE4 cells) or serum-free DMEM (for H1792 cells) with the bottom chamber exposed to completed culture medium. Negative controls were used with 3 μM Latrunculin A. After 12 hrs incubation, fluorescence was measured using a fluorescence plate reader 485 nm (excitation) and 520 nm (emission) according to the manufacturer's instruction. For wound-healing assay, cells (24 hrs after treatment with different DNA or RNA oligonucleotides) were grown to confluence followed by scratching with a pipette tip to create a gap. The floating cells were removed and the gaps were monitored/photographed every 12 hrs.

[1] = test system: HBE4 cells as well as primary normal human bronchial epithelial (NHBE) cells; assay: Cell viability and cell growth curve assay (MTT, trypan blue); type: cell-based; conditions: compared with cells treated with scrambled DNA oligonucleotides (Scr)
Experimental: We then wanted to determine whether piR-L-163 (SEQ ID NO:282) plays a functional role in human bronchial epithelial cells. We treated HBE4 cells as well as primary normal human bronchial epithelial (NHBE) cells with piR-L-163 complementary DNA oligonucleotides (Ant-163) (SEQ ID NO:496) or RNA oligonucleotides (Ant-163R) (SEQ ID NO:497) in the experiment. […] Cell cycle distributions were measured every 2 hrs. […]
Cell viability and cell growth curve assay were determined by MTT assay and trypan blue exclusion assay, respectively as described previously (Kirino, Y. & Mourelatos, Z. Mouse Piwi-interacting RNAs are 2′-O-methylated at their 3′ termini Nat Struct Mol Biol. 14, 347-348 (2007)). BrieflySpecifically, MTT (5 mg/ml) was added into cells and incubated at culture condition for 3 hours, removed the medium carefully and dissolved formazan in DMSO, assay was used to assess the surviving cells and OD values were measured using Microplate Reader Manager (Bio Rad) at wavelengths of 570/690 nm. […] Unstained viable cells were counted in hemocytometer chamber under microscope. […]

F-actin and EBP50 = assay: Binding of p-ERM/moesin with F-actin and EBP50 in IP products of H522 cells; type: cell-based, human; conditions: together with Moesin-WT
H1792 cells = assay: Quantitative cell migration assay; type: cell-based, human; conditions: H1792, vs Scr or Ant-163
Description: as §1, §2

ERM proteins = assay: Pull down with biotin-conjugated piR-L-163 from HBE4 cell lysates, LC-MS-MS; type: binding, human; conditions: vs Scr control RNA
Description: Because of the unexpected cellular localizations of piR-L-163 during cell cycle progression, we suspected that piR-L-163 plays a biological role through interaction with proteins. To identify potential piR-L-163 interacting proteins, biotin-conjugated piR-L-163 RNA oligonucleotides were used as a bait to pull down cellular binding proteins in HBE4 cells.
For IP using piR-L-163, synthesized biotin labeled RNA oligonucleotides (/5′Biosg/[…]-3′) (SEQ ID NO:502) was used and scrambled RNA (/5′Biosg/[…]-3′) (SEQ ID NO:503) used as a control.
Protein extracts from 1×10^7 cells using HKMG lysis buffer (10 mM HEPES pH 7.9, 100 mM KCL, 5 mM MgCl2, 10% glycerol, 1 mM dithiothreitol, 0.1% NP40) with protease and phosphatase inhibitors (Roche) were incubated with 1 μg biotin-labeled RNA for 16 hr at 4° C. with rotation after pre-clearing with streptavidin beads, then coupled to 10 μl 50% of streptavidin agarose beads (Sigma-Aldrich). After incubation, the biotin-labeled oligonucleotide-coupled streptavidin beads were washed four times with HKMG lysis buffer. Samples were denatured in SDS protein loading buffer before running on a SDS-acrylamide gel.
The target band for mass spectrometry was performed. […]
The processed samples were analyzed using a nanoscale reverse-phase liquid chromatography using an Xtreme Simple nanoLC system (CVC/Q24 MicroTech). […]

Substance	cell migration (HBE4 cells)	cell viability and proliferation [1]	binding of moesin with F-actin and EBP50 (F-actin and EBP50)	cell migration (H1792 cells)	binding to ERM proteins (pull down) (ERM proteins)
Ant-163: DNA sequence antisense to piR-L-163, SEQ ID NO:496, 5′-GGTCAGAGAATCAAAGTAACATCATGATAT-3′ (DNA, backbone and methylation of C not given here)	significantly increased cell migration	enhanced cell viability and proliferation	–	–	–
piR-L-163: sprRNA, SEQ ID NO:282; piRNA-L aligned to intron 10 of LAMC2; AUAUCAUGAUGUUACUUUGAUUCUCUGACC with 3′ 2′-O-methylation (listed as RNA, chemistry not fully specified; listed as Homo sapiens)	–	–	enhanced binding with F-actin and EBP50	significantly decreased cell migration	binds to ERM proteins
